The term IC50 denotes the concentration that gives 50% inhibition. The term EC50 denotes the concentration that produces a half-maximal response. A word on the solubility: it is the dissolved amount per volume that the medium holds. For orientation: Ki means a dissociation constant, usually derived from enzyme kinetics or from competition with a known ligand.

We go through 53 compounds from ChEMBL document CHEMBL4840371 (Bioorg Med Chem, 2021).

A short description of data set [1]: Inhibition of Escherichia coli recombinant his-tagged DHDPS using (S)-aspartate-semialdehyde as a substrate preincubated for 12 mins followed by substrate addition by UV-Vis spectrophotometer based coupled DHDPS-DHDPR assay.
Data set [2] relates to HepG2. As to the kind of experiment: Cytotoxicity against human HepG2 cells assessed as reduction in cell viability measured after 48 hrs by MTT assay. In kind it is cell-based. The conditions noted are these: HepG2, 48 h. (In general: Formazan colour is commonly taken as a measure of viable cells.)
Data set [3] deals with HEK293. The data set is described as follows: Cytotoxicity against HEK293 cells assessed as reduction in cell viability measured after 48 hrs by MTT assay. In kind it is cell-based. The conditions noted are these: Homo sapiens, HEK293, 48 h.
Data set [4] is described as follows: Aqueous solubility of the compound. In kind it is physicochemical. The conditions noted are these: buffer.
A short description of data set [5]: Inhibition of Campylobacter jejuni DHDPS using ASA as a substrate in presence of NADPH by DHDPS-DHDPR coupled assay.

`O=C(O)CN1C(=O)S/C(=C\c2ccc3ccccc3c2)C1=O`: the IC50 in data set [1] amounted to 76 µM. Moreover, the EC50 in data set [2] and in data set [3] was 200 µM throughout. In the case of `CCOC(=O)CSC1=NC(=O)/C(=C/c2ccc(OC)cc2)S1`, the solubility entry in data set [4] is reported as “Insoluble”. Turning to `O=C(O)CN1C(=O)S/C(=C\c2cccnc2)C1=O`, in data set [1], the IC50 came to 138 µM. Regarding `COc1ccc(/C=C2\SC(=S)N(CC(=O)O)C2=O)cc1`, the IC50 in data set [1] stood at 540 µM. The EC50 in data set [2] and in data set [3] was 200 µM in each case.

For `O=C(O)CN1C(=O)S/C(=C\c2ccc(OCc3ccccc3)cc2)C1=O`, in data set [1], the IC50 worked out at 71 µM. Besides, the EC50 in data set [2] and in data set [3] was 200 µM each time.

For the compound `COc1cccc(/C=C2\SC(=O)N(CC(=O)O)C2=O)c1`, the IC50 in data set [1] came to 110 µM.

Take `COc1ccc(/C=C2\NC(=S)NC2=O)cc1`: the IC50 in data set [1] came to 323 µM. Regarding `COc1ccc(/C=C2\SC(=S)NC2=O)cc1`, in data set [1], the IC50 is greater than 500 µM.

As to `Cc1ccc(/C=C2\SC(=O)N(CC(=O)O)C2=O)cc1`, in data set [1], the IC50 came out at 80 µM. As for `COc1ccc(/C=C2\SC(=O)N(CC(=O)O)C2=O)cc1`, the IC50 in data set [1] came to 47 µM. The EC50 in data set [2] and in data set [3] was greater than 500 µM in each case. On to `CN(C)c1ccc(/C=C2\SC(=O)N(CC(=O)O)C2=O)cc1`, for which the IC50 in data set [1] is greater than 500 µM.

`COc1ccc(/C=C2\NC(=O)NC2=O)cc1`: in data set [1], the IC50 worked out at 124 µM. Turning to `COc1ccc(/C=C2\SC(=O)N(CC(N)=O)C2=O)cc1`, in data set [4] (read-out: solubility), the solubility is less than 31 µM.

`NCCCC[C@@](N)(CC[C@](N)(CCCCN)C(=O)O)C(=O)O`: the Ki in data set [5] amounted to 0.14 µM. Take `COc1ccc(/C=C2\SC(=O)N(CC(=O)O)C2=O)cc1OC`: in data set [1], the IC50 was 116 µM.

In the case of `CCOc1ccc(/C=C2\SC(=O)N(CC(=O)O)C2=O)cc1`, the IC50 in data set [1] worked out at 72 µM.

Take `O=C(O)CN1C(=O)S/C(=C\c2ccccc2Cl)C1=O`: in data set [1], the IC50 was found to be 137 µM. Still for that read-out and setting: with `O=C(O)CN1C(=O)S/C(=C\c2ccc(C(=O)O)cc2)C1=O` the figure was 70 µM. Take `O=C(O)CN1C(=O)S/C(=C\c2cccc3ccccc23)C1=O`: the IC50 in data set [1] was found to be 97 µM. Moreover, the EC50 in data set [2] and in data set [3] was greater than 500 µM throughout. Consider `O=C(O)CN1C(=O)S/C(=C\c2ccccn2)C1=O`, for which the IC50 in data set [1] stood at 80 µM. Regarding `COc1ccc(/C=C2\SC(=O)N(CC#N)C2=O)cc1`, the solubility in data set [4] (read-out: solubility) is less than 250 µM. In the case of `COc1ccc(/C=C2\SC(=O)N(CCCC(=O)O)C2=O)cc1`, in data set [1], the IC50 stood at 67 µM. With `COc1ccc(/C=C2\NC(=O)N(CC(=O)O)C2=O)cc1`, the IC50 in data set [1] amounted to 66 µM. For the same compound, the EC50 in data set [2] and in data set [3] was greater than 500 µM throughout.

Turning to `O=C(O)CN1C(=O)S/C(=C\c2ccccc2)C1=O`, in data set [1], the IC50 came to 80 µM.

For `O=C(O)CN1C(=O)S/C(=C\c2ccc(F)cc2)C1=O`, the IC50 in data set [1] amounted to 92 µM. On the same count and under the same terms, under `O=C(O)CN1C(=O)S/C(=C\c2ccc(OC(F)(F)F)cc2)C1=O` stands 98 µM. As for `N#Cc1ccc(/C=C2\SC(=O)N(CC(=O)O)C2=O)cc1`, in data set [1], the IC50 was determined as 80 µM. Still for that read-out and setting: with `O=C(O)CN1C(=O)S/C(=C\c2ccc(O)cc2O)C1=O` the figure was 162 µM; with `COc1ccc(CC2SC(=O)N(CC(=O)O)C2=O)cc1` (stereo not given), greater than 500 µM; with `CC(=O)Nc1ccc(/C=C2\SC(=O)N(CC(=O)O)C2=O)cc1`, 68 µM.

Take `O=C(O)CN1C(=O)S/C(=C\c2c[nH]cn2)C1=O`: the IC50 in data set [1] is 94 µM. Consider `COc1ccc(/C=C2\SC(=O)N(Cc3nnn[nH]3)C2=O)cc1`, for which the IC50 in data set [1] is 89 µM. In the case of `CSc1ccc(/C=C2\SC(=O)N(CC(=O)O)C2=O)cc1`, the IC50 in data set [1] was determined as 125 µM.

Consider `O=C(O)CN1C(=O)S/C(=C\c2ccc(Br)cc2)C1=O`, for which, in data set [1], the concentration for half-maximal inhibition (IC50) was 74 µM. Turning to `O=C(O)CN1C(=O)S/C(=C\c2ccc(O)c(Cl)c2)C1=O`, in data set [1], the IC50 worked out at 316 µM. In the case of `O=C(O)CN1C(=O)S/C(=C\c2ccncc2)C1=O`, the IC50 in data set [1] was 90 µM. With `O=C(O)CN1C(=O)S/C(=C\c2ccc3ccccc3n2)C1=O`, the IC50 in data set [1] is 110 µM.

Consider `O=C(O)CN1C(=O)S/C(=C\c2ccc(C(F)(F)F)cc2)C1=O`, for which the IC50 in data set [1] is 122 µM. Turning to `COc1ccc(/C=C2\SC(=O)N(CCC(=O)O)C2=O)cc1`, in data set [1], the IC50 was greater than 250 µM.

With `O=C(O)CN1C(=O)S/C(=C\c2ccc(O)cc2)C1=O`, the IC50 in data set [1] was determined as 103 µM. For the compound `COc1ccc(/C=C2\SC(=O)N(CC(=O)O)C2=O)cn1`, the IC50 in data set [1] amounted to 46 µM. In addition, the EC50 in data set [2] and in data set [3] was greater than 500 µM each time. With `O=C(O)CN1C(=O)S/C(=C\c2cccc(Cl)c2)C1=O`, the IC50 in data set [1] was found to be 121 µM. As for `O=C(O)CN1C(=O)S/C(=C\c2cccs2)C1=O`, in data set [1], the IC50 worked out at 72 µM. Further, the EC50 in data set [2] and in data set [3] was greater than 500 µM in each case.

For the compound `COc1cccc(/C=C2\SC(=O)N(CC(=O)O)C2=O)c1OC`, the IC50 in data set [1] was 108 µM. Still for that read-out and setting: with `Nc1ccc(/C=C2\SC(=O)N(CC(=O)O)C2=O)cc1` the figure was 153 µM. Consider `COc1ccc(/C=C2\NC(=S)N(CC(=O)O)C2=O)cc1`, for which the IC50 in data set [1] amounted to 222 µM. For the same compound, the EC50 in data set [2] and in data set [3] was greater than 500 µM each time. Turning to `COc1ccccc1/C=C1\SC(=O)N(CC(=O)O)C1=O`, the IC50 in data set [1] was determined as 71 µM. Consider `O=C(O)CN1C(=O)S/C(=C\c2ccc(Cl)cc2)C1=O`, for which the IC50 in data set [1] came out at 84 µM. In the case of `O=C(O)CN1C(=O)S/C(=C\c2ccsc2)C1=O`, in data set [1], the 50% inhibitory concentration (IC50) was 87 µM. The 50% effective concentration (EC50) in data set [2] and in data set [3] was greater than 500 µM each time.

Consider `O=C(O)CN1C(=O)S/C(=C\c2ccc(=O)[nH]c2)C1=O`, for which the IC50 in data set [1] came to 59 µM. The same measure, in the same setting: with `COc1ccc(/C=C2\SC(=N)NC2=O)cc1` the figure was 156 µM. Take `COc1ccc(/C=C2\SC(=O)NC2=O)cc1`: the concentration for half-maximal inhibition (IC50) in data set [1] stood at 71 µM. For the same compound, the figures for the EC50 in data set [2] and in data set [3] were 200 µM and 172 µM, respectively. For the compound `COc1ccc(C=C2SC(=O)N(CC(=O)O)C2=O)cc1` (mixture of isomers), in data set [1], the IC50 was found to be 39 µM.
